The term IC50 denotes the concentration at which inhibition is half-maximal. In general, AC50 refers to the concentration at which the activity in the assay is half-maximal. The term EC50 denotes the concentration needed to bring the measured effect to its halfway point. As usually defined, the CC50 is the concentration that lowers cell viability or growth by half.

One test concerns the target Major prion protein (Homo sapiens, UniProt P04156). The format is functional, cell-based.
Test [1] is described as follows: cells.
A short description of test [2]: cells. This is another data set of the same source.
Another test deals with Caspase-6 (Homo sapiens, UniProt P55212). As to the kind of experiment: inhibition of CASP6 peptide cleavage – biochemical, VEID-R110 fluorescence, cherry-pick, dose response (AID 720632).
Test [3] in a line: HIV-1 Vif–A3G interaction blockers – biochemical, TR-FRET, GST-Vif 1-94, biotin-A3G peptide, dose response retest, primary screen (AID 1117319).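 Also: TR-FRET signal of purified GST-Vif binding a biotinylated A3G peptide; inhibitors lower the FRET signal by blocking Vif and A3G binding.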 The format is functional.
In test [4] the test system is Streptococcus sp. 'group A'. As to the kind of experiment: Streptococcus pyogenes SK(-)GAS viability under kanamycin – luminescence, BacTiterGlo, confirmation, counter-screen for streptokinase expression inhibitor project, dose response (AID 1900). The format is functional, organism-based.
Another test has as its target T1, Streptokinase A (Streptococcus pyogenes serotype M1, UniProt P10520).
T1 sequence (P10520 whole entry): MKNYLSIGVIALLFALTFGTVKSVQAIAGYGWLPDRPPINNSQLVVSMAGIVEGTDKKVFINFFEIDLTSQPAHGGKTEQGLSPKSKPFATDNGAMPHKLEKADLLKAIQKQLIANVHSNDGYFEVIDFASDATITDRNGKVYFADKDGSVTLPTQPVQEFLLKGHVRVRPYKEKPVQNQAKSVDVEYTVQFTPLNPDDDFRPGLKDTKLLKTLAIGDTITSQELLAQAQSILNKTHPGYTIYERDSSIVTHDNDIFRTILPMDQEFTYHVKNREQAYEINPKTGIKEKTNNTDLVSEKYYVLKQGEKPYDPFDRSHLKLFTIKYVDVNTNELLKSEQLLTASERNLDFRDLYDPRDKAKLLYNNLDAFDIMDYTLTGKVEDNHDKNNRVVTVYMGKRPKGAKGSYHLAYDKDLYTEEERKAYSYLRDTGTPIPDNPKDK
As to the kind of experiment: viability-normalized secreted streptokinase activity reduction – plasminogen activation absorbance, OD405, dose response (AID 1914).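 Also: secreted streptokinase activity via plasminogen activation per viability signal from cell pellet.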 The format is functional, Streptococcus pyogenes M1 GAS.

The next test deals with Streptococcus. As to the kind of experiment: GAS UMAA2166 growth inhibition – luminescence, BacTiterGlo, counter-screen for streptokinase expression inhibitor project, dose response (AID 1915).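 Also: potency for reduction of bacterial viability or growth.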 The format is functional, organism-based. (In general: The purpose of a counterscreen is to sort out artefacts and off-target activity.)
The nature of test [5]: THP-1 cell cytotoxicity, dose response, cytotoxicity control for non-replicating M. tuberculosis project (AID 489025). The format is functional.
The nature of test [6]: HepG2 cell cytotoxicity, dose response, cytotoxicity control for non-replicating M. tuberculosis project (AID 489018). The format is functional. To be noted: Mycobacterium tuberculosis.
Test [7] can be described thus: Vero E6 cell cytotoxicity, dose response, cytotoxicity control for non-replicating M. tuberculosis project, secondary assay (AID 492998). To be noted: Vero C1008. The format is functional, VeroE6.
The next test concerns the target Nonstructural protein 1 (Influenza A virus, UniProt Q194T2). The format is functional, Influenza A virus (A/California/07/2009(H1N1)).
A short description of test [8]: cells. The format is functional.
The nature of test [9]: ATP-based viability loss in HEK293T cells – cell-based, CellTiter-Glo luminescence, dry powder, set 2, cytotoxicity control, dose response (AID 720595). The format is functional. To be noted: HEK293. In general terms: In ATP-based viability assays light output follows the ATP content of the culture.
Test [10] can be described thus: ATP-based viability loss in HeLa cells – cell-based, CellTiter-Glo luminescence, dry powder, set 2, cytotoxicity control, dose response (AID 720593). The format is functional.
In test [11] the target is NAD-dependent protein deacylase sirtuin-5, mitochondrial (Homo sapiens, UniProt Q9NXA8). As to the kind of experiment: blockers of sirtuin-5 peptide desuccinylation – biochemical, fluorescence imaging, cherry-pick, set 6, dose response (AID 720597).
For a further test, the system named is HEK293. Briefly: viability loss in HEK293T cells – cell-based, ATP luminescence, cherry-pick samples, cytotoxicity control, dose response (AID 687005).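 Also: cells exposed to compound for 48 hours.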 The format is functional. The following applies: Homo sapiens.
Test [12] is described as follows: HEK293 Cytotoxicity Assay Measured in Cell-Based System Using Plate Reader - 7071-01_Inhibitor_Dose_CherryPick_Activity_Set2. The format is functional.
In the next test the target is Paired box protein Pax-8 (Homo sapiens, UniProt Q06710). As to the kind of experiment: PAX8 transcriptional activity inhibition in RMG-I – RMG-I cells, luciferase, cherry-pick, dose response (AID 687027).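 Also: luciferase reporter driven by Pax8 target thyroperoxidase promoter measured by SteadyGlo luminescence.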 The format is functional, cell-based.
Test [13] is described as follows: A2780 cell killing – plate reader, dry powder samples, cytotoxicity control, dose response (AID 743046). The format is functional, cell-based.
Test [14] can be described thus: OVCAR-3 cell viability loss – plate reader, dry powder samples, PAX8 inhibitor project, dose response (AID 743044). The format is functional, cell-based.
Test [15] in a line: IGROV1 cell killing – plate reader, dry powder samples, PAX8 inhibitor project, dose response (AID 743043). The format is functional, cell-based. To be noted: IGROV-1.
Test [16] can be described thus: OVCAR8 cell viability loss – plate reader, dry powder samples, PAX8 project, dose response (AID 743197). The following applies: OVCAR-8. The format is functional, cell-based.
The nature of test [17]: viability loss in HEK293 kidney cells – cell-based, cherry-picks, set 5, cytotoxicity control, dose response (AID 1053117). The format is functional.
A short description of test [18]: A549 cell cytotoxicity, dose response, cytotoxicity control, plate reader, cherry-pick, antagonist series (AID 743412). The format is functional, cell-based.
Test [19] is described as follows: inhibition of bursicon-driven LGR2 cAMP signaling – cell-based, HEK293, CRE-luciferase reporter, cherry pick, dose response (AID 743342). The format is functional. On the technique in general: A reporter such as luciferase makes a cellular process visible.
Test [20] in a line: blockade of melanocortin 4 receptor signaling – cell-based, plate reader, cherry pick, counter-screen for LGR2 antagonist project, dose response (AID 743444).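 Also: transfected HEK 293 cells stimulated with alpha-MSH peptide; potency of inhibitors of the alpha-MSH evoked signal.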 The format is functional.
Test [21] in a line: potency of ADAM10 substrate cleavage blockers – biochemical, QFRET, dose response (AID 743254).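 Also: ADAM10 enzyme with the DM2 quenched FRET peptide as substrate; EDANS fluorescence gain as the protease cuts the substrate; inhibitor potency against ADAM10 proteolytic activity.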
Test [22] concerns the target Disintegrin and metalloproteinase domain-containing protein 17 (Homo sapiens, UniProt P78536). Briefly: inhibition of ADAM17 substrate cleavage – biochemical, quenched FRET substrate, counter-screen for ADAM10 exosite inhibitor project, dose response (AID 743253).

Each structure is given as a SMILES string. Activity calls are given as the source filed them. Some results are limits rather than exact numbers.

Consider `CCc1ccc(-c2nc3ccc(Br)cc3c(C(=O)O)c2C)s1`, for which the results for the IC50 at Major prion protein and in the test “cells [1]” were 1.24 µM (active) and > 138 µM (inactive), respectively.
As to `COCCN1C=C(C(=O)OC)C(c2ccc(Cl)cc2)C(C(=O)OC)=C1`, in the test “cells [2]”, the AC50 was 10.9 µM (active).
In the case of `O=C(O)c1cc(S(=O)(=O)Nc2ccc3c[nH]nc3c2)ccc1O`, the half-maximal activity concentration (AC50) on Caspase-6 is 11.3 µM (active).
For the molecule `CCn1c(=O)cc(N2CCC3(CC2)OCCO3)[nH]c1=O`, in test [3], the IC50 is > 100 µM (active).
Consider `O=C(Nc1nc(-c2ccccn2)cs1)c1ccco1`, for which the EC50 in test [4] was 10.8 µM (active); at Streptokinase A, > 150 µM (not active); in the test with Streptococcus, > 150 µM (not active). In addition, the half-maximal cytotoxic concentration (CC50) is 6.1 µM (active) in test [5], > 20 µM (active) in [6] and 11.3 µM (active) in test [7]. The values for the IC50 at Nonstructural protein 1 and in “cells [8]” were 7.12 µM (active) and 1.68 µM (active), respectively. The values for the concentration at half-maximal activity (AC50) in test [9] and in test [10] were 7.58 µM (active) and > 52 µM (inactive), respectively.
With `Cc1cccc(S(=O)(=O)N(C)C[C@H]2OCc3cnnn3CCCC(=O)N([C@H](C)CO)C[C@@H]2C)c1`, the concentration at half-maximal activity (AC50) in [11] is 23.9 µM (active).
As for `O=C(N[C@@H]1CC[C@@H](CCn2cc(-c3ccccc3)nn2)O[C@H]1CO)c1cnccn1`, the AC50 (in the test on HEK293; in test [12]) was 21.8 µM (active) throughout.
On to `COc1ccc(S(=O)(=O)N(C)C[C@H]2Oc3cc(C#CC4CCCC4)ccc3S(=O)(=O)N([C@@H](C)CO)C[C@@H]2C)cc1`, for which the AC50 on Paired box protein Pax-8 is 6.49 µM (active); in [13], 8.96 µM (active); in [14] it was 21.4 µM (active); in [15], 57.4 µM (active); in test [16], 31.3 µM (active).
For `COc1cccc(-c2ccc3c(c2)[C@H]2[C@H](CCN2S(=O)(=O)c2cccc(OC)c2)[C@H](CO)N3)c1`, the half-maximal activity concentration (AC50) in test [17] is 26.9 µM (active).
In the case of `C[C@H](CO)N1C[C@H](C)[C@H](CN(C)C(=O)Nc2cccc3ccccc23)OCCCC[C@H](C)Oc2ccc(NC(=O)c3ccccc3)cc2C1=O`, the figures for the AC50 in test [18], in test [19] and in [20] were 48 µM (active), 4.88 µM (active) and 52.5 µM (active), respectively.
Turning to `Nc1[nH]c(C(=O)c2ccccc2)c(-c2cccc(C(F)(F)F)c2)c1C(=O)NCCc1c[nH]c2ccccc12`, the results for the half-maximal inhibitory concentration (IC50) in [21] and in test [22] were > 7.73 µM (active) and > 69.6 µM (inactive), respectively.

These data come from ChEMBL document CHEMBL1201862, “PubChem BioAssay data set” (2004).
